According to ChEMBL document CHEMBL1649134, “Occurrence of efflux mechanism and cephalosporinase variant in a population of Enterobacter aerogenes and Klebsiella pneumoniae isolates producing extended-spectrum beta-lactamases” (2009):
≈ marks a conversion by molar mass, not a printed value. Calls of active or inactive are those of the source. The calls are words filed in the database; no cut-off is given here. Peptide text beside a SMILES is read from it. * marks the point of attachment. βNA = c1ccc2cc(N*)ccc2c1

Experiments:
Klebsiella aerogenes [1] = assay: Antimicrobial activity against multidrug resistant Enterobacter aerogenes isolate 23 by broth dilution method; assay type: functional
Klebsiella aerogenes [2] = assay: Antimicrobial activity against multidrug resistant Enterobacter aerogenes isolate 8 by broth dilution method; assay type: functional
Klebsiella pneumoniae [3] = assay: Antimicrobial activity against multidrug resistant Klebsiella pneumoniae isolate 14 by broth dilution method; assay type: functional
Klebsiella aerogenes [4] = assay: Antimicrobial activity against multidrug resistant Enterobacter aerogenes isolate 27 by broth dilution method; assay type: functional
Klebsiella aerogenes [5] = assay: Antimicrobial activity against multidrug resistant Enterobacter aerogenes isolate 2 by broth dilution method; assay type: functional
Klebsiella pneumoniae [6] = assay: Antimicrobial activity against multidrug resistant Klebsiella pneumoniae isolate 2 by broth dilution method; assay type: functional
Klebsiella aerogenes [7] = assay: Antimicrobial activity against multidrug resistant Enterobacter aerogenes isolate 6 by broth dilution method; assay type: functional
Klebsiella pneumoniae [8] = assay: Antimicrobial activity against multidrug resistant Klebsiella pneumoniae isolate 4 by broth dilution method; assay type: functional
Klebsiella pneumoniae [9] = assay: Antimicrobial activity against multidrug resistant Klebsiella pneumoniae isolate 10 by broth dilution method; assay type: functional
Klebsiella aerogenes [10] = assay: Antimicrobial activity against multidrug resistant Enterobacter aerogenes isolate 7 by broth dilution method; assay type: functional
Klebsiella aerogenes [11] = assay: Antimicrobial activity against multidrug resistant Enterobacter aerogenes isolate 4 by broth dilution method; assay type: functional
Klebsiella aerogenes [12] = assay: Antimicrobial activity against multidrug resistant Enterobacter aerogenes isolate 24 by broth dilution method; assay type: functional
Klebsiella aerogenes [13] = assay: Antimicrobial activity against multidrug resistant Enterobacter aerogenes isolate 26 by broth dilution method; assay type: functional
Klebsiella pneumoniae [14] = assay: Antimicrobial activity against multidrug resistant Klebsiella pneumoniae isolate 15 by broth dilution method; assay type: functional
Klebsiella aerogenes [15] = assay: Antimicrobial activity against multidrug resistant Enterobacter aerogenes isolate 11 by broth dilution method; assay type: functional
Klebsiella pneumoniae [16] = assay: Antimicrobial activity against multidrug resistant Klebsiella pneumoniae isolate 12 by broth dilution method; assay type: functional
Klebsiella aerogenes [17] = assay: Antimicrobial activity against multidrug resistant Enterobacter aerogenes isolate 13 by broth dilution method; assay type: functional
Klebsiella aerogenes [18] = assay: Antimicrobial activity against multidrug resistant Enterobacter aerogenes isolate 15 by broth dilution method; assay type: functional
Klebsiella pneumoniae [19] = assay: Antimicrobial activity against multidrug resistant Klebsiella pneumoniae isolate 13 by broth dilution method; assay type: functional
Klebsiella aerogenes [20] = assay: Antimicrobial activity against multidrug resistant Enterobacter aerogenes isolate 17 by broth dilution method; assay type: functional
Klebsiella pneumoniae [21] = assay: Antimicrobial activity against multidrug resistant Klebsiella pneumoniae isolate 9 by broth dilution method; assay type: functional
Klebsiella aerogenes [22] = assay: Antimicrobial activity against multidrug resistant Enterobacter aerogenes isolate 19 by broth dilution method; assay type: functional
Klebsiella aerogenes [23] = assay: Antimicrobial activity against multidrug resistant Enterobacter aerogenes isolate 5 by broth dilution method; assay type: functional
Klebsiella pneumoniae [24] = assay: Antimicrobial activity against multidrug resistant Klebsiella pneumoniae isolate 7 by broth dilution method; assay type: functional
Klebsiella aerogenes [25] = assay: Antimicrobial activity against multidrug resistant Enterobacter aerogenes ATCC 15038 by broth dilution method; assay type: functional
Klebsiella pneumoniae [26] = assay: Antimicrobial activity against multidrug resistant Klebsiella pneumoniae isolate 1 by broth dilution method; assay type: functional
Klebsiella aerogenes [27] = assay: Antimicrobial activity against multidrug resistant Enterobacter aerogenes isolate 25 by broth dilution method; assay type: functional
Klebsiella pneumoniae [28] = assay: Antimicrobial activity against multidrug resistant Klebsiella pneumoniae isolate 11 by broth dilution method; assay type: functional
Klebsiella pneumoniae [29] = assay: Antimicrobial activity against multidrug resistant Klebsiella pneumoniae isolate 3 by broth dilution method; assay type: functional
Klebsiella pneumoniae [30] = assay: Antimicrobial activity against multidrug resistant Klebsiella pneumoniae ATCC 11296 by broth dilution method; assay type: functional
Klebsiella aerogenes [31] = assay: Antimicrobial activity against multidrug resistant Enterobacter aerogenes isolate 21 by broth dilution method; assay type: functional
Klebsiella aerogenes [32] = assay: Antimicrobial activity against multidrug resistant Enterobacter aerogenes isolate 9 by broth dilution method; assay type: functional
Klebsiella aerogenes [33] = assay: Antimicrobial activity against multidrug resistant Enterobacter aerogenes isolate 12 by broth dilution method; assay type: functional
Klebsiella aerogenes [34] = assay: Antimicrobial activity against multidrug resistant Enterobacter aerogenes isolate 3 by broth dilution method; assay type: functional
Klebsiella aerogenes [35] = assay: Antimicrobial activity against multidrug resistant Enterobacter aerogenes isolate 1 by broth dilution method; assay type: functional
Klebsiella pneumoniae [36] = assay: Antimicrobial activity against multidrug resistant Klebsiella pneumoniae isolate 8 by broth dilution method; assay type: functional
Klebsiella aerogenes [37] = assay: Antimicrobial activity against multidrug resistant Enterobacter aerogenes isolate 20 by broth dilution method; assay type: functional
Klebsiella pneumoniae [38] = assay: Antimicrobial activity against multidrug resistant Klebsiella pneumoniae isolate 16 by broth dilution method; assay type: functional
Klebsiella pneumoniae [39] = assay: Antimicrobial activity against multidrug resistant Klebsiella pneumoniae isolate 6 by broth dilution method; assay type: functional
Klebsiella aerogenes [40] = assay: Antimicrobial activity against multidrug resistant Enterobacter aerogenes isolate 18 by broth dilution method; assay type: functional
Klebsiella pneumoniae [41] = assay: Antimicrobial activity against multidrug resistant Klebsiella pneumoniae isolate 5 by broth dilution method; assay type: functional
Klebsiella aerogenes [42] = assay: Antimicrobial activity against multidrug resistant Enterobacter aerogenes isolate 14 by broth dilution method; assay type: functional
Klebsiella aerogenes [43] = assay: Antimicrobial activity against multidrug resistant Enterobacter aerogenes isolate 16 by broth dilution method; assay type: functional
Klebsiella aerogenes [44] = assay: Antimicrobial activity against multidrug resistant Enterobacter aerogenes isolate 10 by broth dilution method; assay type: functional
Klebsiella aerogenes [45] = assay: Antimicrobial activity against multidrug resistant Enterobacter aerogenes isolate 22 by broth dilution method; assay type: functional
Klebsiella aerogenes [46] = assay: Inhibition of multidrug resistance efflux pump in Enterobacter aerogenes isolate 13 assessed as increase in intracellular [14C]chloramphenicol accumulation relative to untreated control; assay type: cell-based
Klebsiella pneumoniae [47] = assay: Inhibition of multidrug resistance efflux pump in Klebsiella pneumoniae isolate 13 assessed as increase in intracellular [14C]chloramphenicol accumulation relative to untreated control
Klebsiella aerogenes [48] = assay: Inhibition of multidrug resistance efflux pump in Enterobacter aerogenes isolate 17 assessed as increase in intracellular [14C]chloramphenicol accumulation relative to untreated control; assay type: cell-based
Klebsiella aerogenes [49] = assay: Inhibition of multidrug resistance efflux pump in Enterobacter aerogenes isolate 6 assessed as increase in intracellular [14C]chloramphenicol accumulation relative to untreated control; assay type: cell-based
Klebsiella pneumoniae [50] = assay: Inhibition of multidrug resistance efflux pump in Klebsiella pneumoniae isolate 14 assessed as increase in intracellular [14C]chloramphenicol accumulation relative to untreated control

Q: CO[C@@]1(NC(=O)Cc2cccs2)C(=O)N2C(C(=O)O)=C(COC(N)=O)CS[C@@H]21 [CEFOXITIN] was tested. Which MIC (Klebsiella aerogenes [1]) did it give?
A: 256 µg/mL (≈ 599 µM)

Q: And the MIC (Klebsiella aerogenes [2])?
A: 1020 µg/mL (≈ 2400 µM)

Q: What about the MIC (Klebsiella pneumoniae [3]) of the same molecule?
A: 64 µg/mL (≈ 150 µM)

Q: And the MIC (Klebsiella aerogenes [4])?
A: > 1020 µg/mL

Q: And the MIC (Klebsiella aerogenes [5])?
A: > 1020 µg/mL

Q: And the MIC (Klebsiella pneumoniae [6])?
A: 16 µg/mL (≈ 37.4 µM)

Q: And the MIC (Klebsiella aerogenes [7])?
A: > 1020 µg/mL

Q: And the MIC (Klebsiella pneumoniae [8])?
A: 32 µg/mL (≈ 74.9 µM)

Q: What about the MIC (Klebsiella pneumoniae [9]) of the same molecule?
A: 32 µg/mL (≈ 74.9 µM)

Q: What about the MIC (Klebsiella aerogenes [10]) of the same molecule?
A: > 1020 µg/mL

Q: And the MIC (Klebsiella aerogenes [11])?
A: > 1020 µg/mL

Q: What about the MIC (Klebsiella aerogenes [12]) of the same molecule?
A: > 1020 µg/mL

Q: And the MIC (Klebsiella aerogenes [13])?
A: 1020 µg/mL (≈ 2400 µM)

Q: And the MIC (Klebsiella pneumoniae [14])?
A: 64 µg/mL (≈ 150 µM)

Q: What about the MIC (Klebsiella aerogenes [15]) of the same molecule?
A: 512 µg/mL (≈ 1200 µM)

Q: What about the MIC (Klebsiella pneumoniae [16]) of the same molecule?
A: 64 µg/mL (≈ 150 µM)

Q: What about the MIC (Klebsiella aerogenes [17]) of the same molecule?
A: > 1020 µg/mL

Q: And the MIC (Klebsiella aerogenes [18])?
A: > 1020 µg/mL

Q: What about the MIC (Klebsiella pneumoniae [19]) of the same molecule?
A: 32 µg/mL (≈ 74.9 µM)

Q: What about the MIC (Klebsiella aerogenes [20]) of the same molecule?
A: > 1020 µg/mL

Q: And the MIC (Klebsiella pneumoniae [21])?
A: 16 µg/mL (≈ 37.4 µM)

Q: What about the MIC (Klebsiella aerogenes [22]) of the same molecule?
A: > 1020 µg/mL

Q: And the MIC (Klebsiella aerogenes [23])?
A: > 1020 µg/mL

Q: What about the MIC (Klebsiella pneumoniae [24]) of the same molecule?
A: 16 µg/mL (≈ 37.4 µM)

Q: What about the MIC (Klebsiella aerogenes [25]) of the same molecule?
A: 128 µg/mL (≈ 299 µM)

Q: And the MIC (Klebsiella pneumoniae [26])?
A: 16 µg/mL (≈ 37.4 µM)

Q: What about the MIC (Klebsiella aerogenes [27]) of the same molecule?
A: > 1020 µg/mL

Q: And the MIC (Klebsiella pneumoniae [28])?
A: 32 µg/mL (≈ 74.9 µM)

Q: And the MIC (Klebsiella pneumoniae [29])?
A: 32 µg/mL (≈ 74.9 µM)

Q: And the MIC (Klebsiella pneumoniae [30])?
A: 8 µg/mL (≈ 18.7 µM)

Q: What about the MIC (Klebsiella aerogenes [31]) of the same molecule?
A: > 1020 µg/mL

Q: What about the MIC (Klebsiella aerogenes [32]) of the same molecule?
A: > 1020 µg/mL

Q: What about the MIC (Klebsiella aerogenes [33]) of the same molecule?
A: > 1020 µg/mL

Q: What about the MIC (Klebsiella aerogenes [34]) of the same molecule?
A: > 1020 µg/mL

Q: And the MIC (Klebsiella aerogenes [35])?
A: > 1020 µg/mL

Q: And the MIC (Klebsiella pneumoniae [36])?
A: 8 µg/mL (≈ 18.7 µM)

Q: What about the MIC (Klebsiella aerogenes [37]) of the same molecule?
A: > 1020 µg/mL

Q: What about the MIC (Klebsiella pneumoniae [38]) of the same molecule?
A: 32 µg/mL (≈ 74.9 µM)

Q: What about the MIC (Klebsiella pneumoniae [39]) of the same molecule?
A: 16 µg/mL (≈ 37.4 µM)

Q: What about the MIC (Klebsiella aerogenes [40]) of the same molecule?
A: > 1020 µg/mL

Q: And the MIC (Klebsiella pneumoniae [41])?
A: 16 µg/mL (≈ 37.4 µM)

Q: And the MIC (Klebsiella aerogenes [42])?
A: > 1020 µg/mL

Q: What about the MIC (Klebsiella aerogenes [43]) of the same molecule?
A: > 1020 µg/mL

Q: And the MIC (Klebsiella aerogenes [44])?
A: > 1020 µg/mL

Q: What about the MIC (Klebsiella aerogenes [45]) of the same molecule?
A: > 1020 µg/mL

Q: What does the source list for N=C(N)NCCC[C@H](NC(=O)[C@@H](N)Cc1ccccc1)C(=O)Nc1ccc2ccccc2c1 (H-Phe-Arg-βNA)?
A: inhibition (Klebsiella aerogenes [46]): Active; inhibition (Klebsiella pneumoniae [47]): Active; inhibition (Klebsiella aerogenes [48]): Active; inhibition (Klebsiella aerogenes [49]): Active; inhibition (Klebsiella pneumoniae [50]): Active
